Experiment [1] deals with CXCL12WT self-association. Particulars: in 100 mM sodium phosphate; cited from earlier work.
A further experiment concerns the target CXCL12WT (Homo sapiens, UniProt P48061). Particulars: ΔG = −RT ln Kd @ 298 K, calculated from Veldkamp et al.; cited from earlier work.
The target in a further experiment is CXCL12_1 (Homo sapiens, UniProt P48061, I79C/L76C). Description: 2D 1H-15N HSQC NMR titration of CXCR4 peptides into CXCL12_1. It counts as binding. Particulars: ΔG = −RT ln Kd @ 298 K.
The target of a further experiment is CXCL12_2 (Homo sapiens, UniProt P48061, A86C/L57C). Description: 2D 1H-15N HSQC NMR titration of CXCR4 peptides into CXCL12_2. It counts as binding. Particulars: ΔG = −RT ln Kd @ 298 K.

Marks after values point to notes of the source that are not given here. No end group written: not given here.

Turning to “CXCL12WT: wild type chemokine CXCL12 (stromal cell-derived factor-1/SDF-1)”, the Kd of self-association in experiment [1] is given as 140 µM.

In the case of “GMMEGISIYTSDNYTEEMGSGDYDSMKEPCFREENANFNK [CXCR4_1–38]”, the results for the ΔG on CXCL12WT, on CXCL12_1 and at CXCL12_2 were −7.29 ^* kcal mol^−1, -7.43 kcal/mol and -8.24 kcal/mol, respectively.

The record behind these values is paper PMC3783652 (ACS chemical biology, 2013).
